Drawing on US9040527B2, “Pyrimidinediamine kinase inhibitors” (Rigel Pharmaceuticals, Inc., priority 2008, dated 2015), this text covers IC50 for 12 molecules.

Test [1] deals with T1, PLK1 (Homo sapiens, UniProt P53350). Nature of the test: In vitro PLK1 ELISA assay (biochemical). The arrangement: purchased Cell Signalling 7728. As to the method: (§1) Inhibition of PLK1 was measured by quantifying phosphorylation of PLK1 substrates using chemiluminescent and fluorogenic probes. The protocols for these assays are provided below.
In Vitro PLK1 ELISA Assay
1. Preparation of Assay Plates.
Costar 96-well black or white solid flat high binding plates (Fisher Scientific, Catalog No. 07-200-591) were coated with Neutravidin (Pierce, Catalog No. 31000) using the following protocol. A 0.01 mg/mL solution of Neutravidin in 1× Phosphate Buffered Saline (“PBS”, Cellgro/Mediatech, Catalog No. 21-040-CV) was added to each well (100 μL/well) and was incubated for 18-24 hours at 4° C. The plates were then washed with 1× Phosphate Buffer Saline—Tween (“PBST”, Calbiochem, Catalog No. 524653) buffer using a plate washer. The plates were treated with bovine serum albumin (“BSA”, Sigma, Catalog No. A7906) to block non-specific binding sites, by adding a 2% BSA solution in 1×PBST buffer to each well (100 μL/well) and incubating the plates for 1 hour at room temperature. The plates were then washed with 1×PBST buffer using a plate washer.
2. PLK1-Catalyzed Phosphorylation Reaction
An aqueous buffer solution A having the following composition was prepared:
20 mM HEPES (Cellgro/Mediatech, Catalog No. 25-060Ci), pH 7.2;
5 mM MgCl2 (Sigma, Catalog No. M2393);
2 mM MnCl2.4H2O (EM Biosciences, Catalog No. MX0185-2);
1 mM Dithiothreitol (“DTT”, Fluka, Catalog No. B4184).
Next, the substrate solution B was prepared by adding 2.6 μL of 10 mM ATP (Sigma, Catalog No. A7699) and 6.4 μL of the 1 mM PLK1 substrate, CHK2-derived peptide Biotin-SSLETVSTQELYSIP (custom synthesized at Anaspec) SEQ ID: No. 1, to 4691 μL of the buffer solution A. The concentration of the ATP in solution B is 5.44 μM (1.36×); the concentration of the PLK1 substrate in solution B is 1.36 μM (1.36×).
Compound solutions C of varying concentrations for each compound were prepared by dissolving each compound in dimethylsulfoxide (DMSO, Sigma, Catalog No. D2650) to varying concentrations, followed by adding 2 μL of each solution to 38 μL of the buffer solution A, thereby forming 10× compound solutions in 5% DMSO.
A PLK1 solution D was prepared by adding 8.4 μL of 100 μg/mL PLK1 (Cell Signalling, Catalog No. 7728) to 1392 μL of the buffer solution A, thereby forming 0.6 μg/mL (6×) PLK1 solution.
The aqueous 1.36× substrate solution B was added to each well (44 μL/well) resulting in binding of the substrate to the plate via biotin/neutravidin interaction. Then 10× compound solutions C for each tested compound at each tested concentration were added to each well (6 μL/well). Next, 6×PLK1 solution D was added to each well (10 μL/well).
The final concentrations of tested compounds in each well were 10 μM, 3.3 μM, 1.1 μM, 0.36 μM, 0.12 μM, 0.04 μM, 0.014 μM, and 0.005 μM.
The obtained reaction mixtures were incubated in the wells for 45 minutes at room temperature, allowing PLK1-catalyzed phosphorylation of the substrate to proceed. The plates were then washed with 1×PBST solution using a plate washer, such that the bound phosphorylated or unphosphorylated substrate remains attached to the wells upon washing.
The washed plates were developed by treating the plates with a primary antibody that is specific for the phosphorylated substrate, followed by treatment with a secondary antibody that is specific for the primary antibody, and that is capable of catalyzing a reaction that results in a chemiluminescent readout. The chemiluminescent readout was used to quantify the substrate phosphorylation, and, consequently, to determine IC50 values for PLK1 inhibition, and was measured using a luminometer (Perkin Elmer/Wallac plate reader). The plate development protocol is described below.
A mixed antibody solution E was prepared by adding 1 μL of the primary antibody, rabbit p-CHK2(T68) (Rockland, Catalog No. 401280), and 1 μL of the secondary antibody, HRP-goat anti-rabbit IgG (Jackson Immunoresearch Catalog No. 111-035-003) to 10000 μL of 0.1% BSA in 1×PBST buffer. […]
(In an ELISA, binding on a coated surface is turned into a signal by an enzyme label.)

Test [2] has as its target T1, PLK1. Nature of the test: Cellular PLK1 assay in K562 cells overexpressing CDC25C. The following applies: nocodazole arrested, cdc25c p-Ser198 readout. The class given is cell-based. Also on record: endogenous in cells; host or cells: K562 (human chronic myelogenous leukemia) overexpressing CDC25C, nocodazole-arrested. As to the method:
as §1
1. Culturing of K562 Cells
Human chronic myelogenous leukemia K562 cells (American Tissue Culture Collection) overexpressing CDC25C, were grown in Growth Medium having the following composition: Iscove Dulbecco's Modified Eagle's Medium (“Iscove DMEM”, Mediatech/Cellgro, Cat. #10-013-CV), 10% Fetal Bovine Serum (“FBS”, SAFC Biosciences, Cat. #12106-500M), and 1% penicillin/streptomycin (“pen-strep”, Mediatech/Cellgro, Cat. #30-002-CI). The cells were plated in 96 well round bottom tissue culture plates (Fisher, Costar* Cell Culture plates, Cat. #07-200-95) at 100,000 cells per 50 μL of Growth Medium per well. Nocodazole (Sigma, Cat. # M1404) was added to the growth media to arrest the cells in the G2 or M phase, at 333 nM concentration. The cells were incubated with nocodazole for 18 hours at 37° C. prior to addition of tested compounds.
2. Treatment of Cells with the Tested Compounds
Solutions of tested compounds in DMSO at different concentrations were prepared using serial dilutions. Each compound was tested at 8 concentration points, 10 μM, 3.3 μM, 1.11 μM, 0.37 μM, 0.12 μM, 0.04 μM, 0.014 μM, 0.005 μM, duplicate replicates.
Two controls were performed: “DMSO alone” control in which nocodazole and DMSO were present but no compounds were added, and “nocodazole alone” control, in which only nocodazole was present, but neither DMSO nor compounds were added.
The solutions of compounds were prepared by diluting 10 mM compound 1:1 in DMSO (5 μL 10 mM compound and 5 μL DMSO), followed by 1:3 serial dilutions of compound in DMSO performed by diluting 3 μL of higher concentration compound solution serially into 6 μL DMSO to give 3-fold dilutions. Next, 3 μL of each compound solution at each concentration was transferred to 750 μL of Growth Medium. In “DMSO alone” control 3 μL of DMSO alone was added to 750 μL of Growth Medium.
After the diluted compounds were mixed well in the Growth Medium, 50 μL of each compound solution in DMSO/Growth Medium was transferred to each well of the 96-plate containing cells in 50 μL of Growth Medium/Nocodazole.
The cells and compounds were incubated for 120 minutes at 37° C., in an atmosphere containing 5% CO2.
3. Fixation and Permeabilization of the Cells
After the cells were incubated with compounds, the cells were spun down at 1,000 rpm for 5 minutes at 4° C. and supernatants were removed by flicking the plates. Cells were then washed with 200 μl of ice cold PBS, spun down again and supernatants removed. Cells were then fixed and permeabilized by addition of 100 μL/well of Fixation and Permeabilization Solution (1× buffer provided in BD Biosciences Cytofix/Cytoperm™ Fixation/Permeabilization kit, Cat. #554714) and incubation for 20 minutes at room temperature. The fixative was then removed by centrifugation (5 minutes at 2,000 rpm), and plates were flicked to remove the fixative and washed twice, each time with 200 μL/well BD Perm/Wash buffer (10× concentrate provided in BD Biosciences Cytofix/Cytoperm™ Fixation/Permeabilization kit, Cat. #554714, 1× buffer prepared by dilution in distilled H2O).
Cells were spun down at 1,000 rpm for 5 minutes at 4° C. Supernatants were removed by flicking the plates. A solution of a primary antibody specific for cdc25cp-Ser198 was prepared by diluting Rabbit cdc25c (Ser198) antibody (Cell Signaling, #9529L) 1:50 in a Fluorescence Activated Cell Sorting (“FACS”) Buffer (2% FBS in PBS). The cell pellets were resuspended in 50 μL of the primary antibody solution. 50 μL of FACS buffer was added to unstained controls. Staining was allowed to proceed overnight at room temperature.
The plates were then washed by addition of 200 μL of FACS Buffer to each well, were centrifuged and the supernatant was removed. […]

[3] abbreviates: ELISA, CHK2-derived peptide substrate, read-out: PLK1 IC50 (μM) biochemical assay.
The mark [4] stands for this setting: read-out: IC50 in biochemical in vitro PLK1 ELISA assay (less than 10 μM).

A value given as a limit tells only on which side of the number the result lay.

T1 sequence (P53350 whole entry): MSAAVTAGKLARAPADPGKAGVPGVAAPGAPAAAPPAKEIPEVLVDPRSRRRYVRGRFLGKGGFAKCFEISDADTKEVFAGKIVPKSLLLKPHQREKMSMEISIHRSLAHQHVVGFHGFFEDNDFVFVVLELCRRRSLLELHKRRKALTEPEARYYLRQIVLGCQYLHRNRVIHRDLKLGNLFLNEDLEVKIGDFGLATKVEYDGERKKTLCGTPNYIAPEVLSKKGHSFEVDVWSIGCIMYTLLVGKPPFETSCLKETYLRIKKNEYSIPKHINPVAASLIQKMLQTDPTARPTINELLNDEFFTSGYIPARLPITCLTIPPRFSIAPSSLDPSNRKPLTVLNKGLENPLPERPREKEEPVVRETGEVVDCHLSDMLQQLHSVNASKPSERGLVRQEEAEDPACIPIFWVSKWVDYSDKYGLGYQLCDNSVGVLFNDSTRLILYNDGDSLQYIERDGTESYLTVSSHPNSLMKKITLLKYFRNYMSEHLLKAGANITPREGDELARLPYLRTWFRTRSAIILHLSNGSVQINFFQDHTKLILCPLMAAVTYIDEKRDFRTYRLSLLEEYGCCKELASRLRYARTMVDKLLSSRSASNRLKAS

For the molecule `CN1CCN(c2cccc(Nc3ncc(F)c(Nc4ccc5c(c4)NC(=O)CO5)n3)c2)CC1` [compound 17, 6-(5-fluoro-2-(3-(4-methylpiperazin-1-yl)phenylamino)pyrimidin-4-ylamino)-2H-benzo[b][1,4]oxazin-3(4H)-one], the IC50 on PLK1 [1] (setting [3]) was less than 0.5 µM; at PLK1 [1] (read-out: IC50 in biochemical ELISA assay (less than 0.01 μM)) it was less than 0.01 µM; on PLK1 [1] (setting [4]), less than 10 µM; at PLK1 [2], 0.5 to 5 µM. With `O=C1COc2ccc(Nc3nc(Nc4cccc(N5CCNCC5)c4)ncc3F)cc2N1` [compound 18, 6-(5-fluoro-2-(3-(piperazin-1-yl)phenylamino)pyrimidin-4-ylamino)-2H-benzo[b][1,4]oxazin-3(4H)-one], the values for the IC50 on PLK1 [1] (setting [3]), on PLK1 [1] (setting [4]) and against PLK1 [2] were less than 0.5 µM, less than 10 µM and 0.5 to 5 µM, respectively. In the case of `Cc1cnc(Nc2ccc(N3CCN(C)CC3)cc2)nc1Nc1ccc2c(n1)NC(=O)C(C)(C)O2` [compound 88, 2,2-dimethyl-6-(5-methyl-2-(4-(4-methylpiperazin-1-yl)phenylamino)pyrimidin-4-ylamino)-2H-pyrido[3,2-b][1,4]oxazin-3(4H)-one], the IC50 on PLK1 [2] was no less than 10 µM. On the same count and under the same terms, to `CCN1CCN(c2ccc(Nc3ncc(C)c(Nc4ccc5c(n4)N(C)C(=O)CO5)n3)cc2)CC1` [compound 91, 6-(2-(4-(4-ethylpiperazin-1-yl)phenylamino)-5-methylpyrimidin-4-ylamino)-4-methyl-2H-pyrido[3,2-b][1,4]oxazin-3(4H)-one] belongs no less than 10 µM. Molecule `CCN1CCN(c2ccc(Nc3ncc(C)c(Nc4ccc5c(n4)NC(=O)C(C)(C)O5)n3)cc2)CC1` [compound 92, 6-(2-(4-(4-ethylpiperazin-1-yl)phenylamino)-5-methylpyrimidin-4-ylamino)-2,2-dimethyl-2H-pyrido[3,2-b][1,4]oxazin-3(4H)-one] returned an IC50 on PLK1 [2] of no less than 10 µM.

For the molecule `CCN1CCN(c2ccc(Nc3ncc(C)c(Nc4ccc5c(n4)N(C)C(=O)C(C)(C)O5)n3)cc2)CC1` [compound 94, 6-(2-(4-(4-ethylpiperazin-1-yl)phenylamino)-5-methylpyrimidin-4-ylamino)-2,2,4-trimethyl-2H-pyrido[3,2-b][1,4]oxazin-3(4H)-one], on PLK1 [2], the IC50 was no less than 10 µM. On to `Cc1cc(Nc2ncc(C)c(Nc3ccc4c(n3)N(C)C(=O)C(C)(C)O4)n2)ccc1N1CCN(C)CC1` [compound 98, 2,2,4-trimethyl-6-(5-methyl-2-(3-methyl-4-(4-methylpiperazin-1-yl)phenylamino)pyrimidin-4-ylamino)-2H-pyrido[3,2-b][1,4]oxazin-3(4H)-one], for which the IC50 at PLK1 [2] is no less than 10 µM. Same read-out and setting: to `CCOC(=O)N1CCN(c2ccc(Nc3ncc(F)c(Nc4ccc5c(n4)NCCO5)n3)cc2)CC1` [compound 163, ethyl 4-(4-(4-(3,4-dihydro-2H-pyrido[3,2-b][1,4]oxazin-6-ylamino)-5-fluoropyrimidin-2-ylamino)phenyl)piperazine-1-carboxylate] belongs no less than 10 µM; to `CC(=O)N1CCN(c2cccc(Nc3ncc(F)c(Nc4ccc5c(n4)NCCO5)n3)c2)CC1` [compound 164, 1-(4-(3-(4-(3,4-dihydro-2H-pyrido[3,2-b][1,4]oxazin-6-ylamino)-5-fluoropyrimidin-2-ylamino)phenyl)piperazin-1-yl)ethanone], no less than 10 µM. Same read-out and setting: under `CCOC(=O)N1CCN(c2cccc(Nc3ncc(F)c(Nc4ccc5c(n4)NCCO5)n3)c2)CC1` [compound 165, ethyl 4-(3-(4-(3,4-dihydro-2H-pyrido[3,2-b][1,4]oxazin-6-ylamino)-5-fluoropyrimidin-2-ylamino)phenyl)piperazine-1-carboxylate] stands no less than 10 µM; under `CN1CCN(c2ccc(Nc3ncc(F)c(Nc4ccc5c(n4)NCCO5)n3)cc2)CC1` [compound 166, N4-(3,4-dihydro-2H-pyrido[3,2-b][1,4]oxazin-6-yl)-5-fluoro-N2-(4-(4-methylpiperazin-1-yl)phenyl)pyrimidine-2,4-diamine], no less than 10 µM. In turn, `Cc1cnc(Nc2ccc(N3CCN(C)CC3)nc2)nc1Nc1ccc2c(c1)N(C)C(=O)C(C)(C)O2` [compound 202, 2,2,4-trimethyl-6-(5-methyl-2-(6-(4-methylpiperazin-1-yl)pyridin-3-ylamino)pyrimidin-4-ylamino)-2H-benzo[b][1,4]oxazin-3(4H)-one] yielded an IC50 at PLK1 [2] of no less than 10 µM.

By IC50 is commonly meant the concentration at which inhibition is half-maximal.
